Assay results: patent publication US20230364057A1, “BACTERIAL DNA GYRASE INHIBITORS AND METHODS OF USE THEREOF” (THE FLORIDA INTERNATIONAL UNIVERSITY BOARD OF TRUSTEES, priority 2022, published 2023)

Assays:
[1] = molecular target: T1, E. coli DNA gyrase (Escherichia coli (strain K12), UniProt P0AES4+P0AES6); assay: biochemical; format: biochemical
[2] = molecular target: T1, E. coli DNA gyrase; assay: Agarose gel-based DNA gyrase inhibition assay; format: biochemical
Procedure: 100 ng of DNA gyrase was used to supercoil the rx pAB1 in the presence of different concentrations of a gyrase inhibitor. […] Samples were analyzed by electrophoresis in 1% w/v agarose gels followed by ethidium bromide staining and photographed under UV light.

[3] = IC50 ([…]-50 µM), bin of Table 2
[4] = IC50 (50-200 µM), bin of Table 2

Row | SMILES | inhibition of E. coli DNA gyrase activities ([2]; 50 µM of compounds) | inhibition of E. coli DNA gyrase activities ([2]; 200 µM of compounds) | further results
1 | O=C(O)CCCN1C(=O)C(=Cc2ccc(-c3nc4ccccc4s3)o2)SC1=S (single isomer, unassigned) [Compound 41] |  |  | IC50 ([1]; IC50 (≤15 µM) IC50, Table 2): 1.48 µM
2 | O=C(/C=C/c1ccc(O)c(O)c1)O[C@@H]1CC(O)(C(=O)O)C[C@@H](OC(=O)/C=C/c2ccc(O)c(O)c2)C1O (stereo partly shown) [3,5-dicaffeoylquinic acid, reference compound] |  |  | inhibition of E. coli DNA gyrase activities [1]: strongly inhibit
3 | CCOC(=O)c1cc(-c2ccc(N3CCOCC3)cc2)nn1-c1ccccc1C(=O)O [Compound 7] | completely inhibited | completely inhibited | IC50 [1, 3]: 25 to 50 µM
4 | COc1ccc(C2=NN(c3nc(-c4ccccc4)c(CC(=O)O)s3)C(c3ccco3)C2)cc1 (stereo not shown) [Compound 10] |  | completely inhibited | IC50 [1, 4]: 50 to 200 µM
5 | N#CC(=Cc1ccc(C(=O)O)cc1)c1nc2sc3c(c2c(=O)[nH]1)CCCC3 [Compound 12] | completely inhibited | completely inhibited | IC50 [1, 3]: 25 to 50 µM
6 | Cc1cc(C)c(-c2nc3ccccc3s2)[nH]1 [Compound 13] |  | almost completely inhibited | IC50 [1, 4]: 50 to 200 µM
7 | O=C(Nc1nc2cc3c(cc2s1)OCO3)C1CC1 [Compound 15] |  | completely inhibited | IC50 [1, 4]: 50 to 200 µM
8 | CCc1ccc(S(=O)(=O)/N=C2/C=C(Nc3cccc(C(=O)O)c3)C(=O)c3ccccc32)cc1 [Compound 17] |  | completely inhibited | IC50 [1, 4]: 50 to 200 µM
9 | Cc1n[nH]c(SC(Cc2ccc(-c3cccc(Cl)c3)o2)C(=O)O)n1 (stereo not shown) [Compound 18] | completely inhibited | completely inhibited | IC50 [1, 3]: 25 to 50 µM
10 | CCc1ccc(OCC(=O)/N=c2/[nH]nc(-c3ccco3)s2)cc1 [Compound 22] |  | completely inhibited | IC50 [1, 4]: 50 to 200 µM
11 | CC(C)(C)N1C(=O)N=C(O)/C(=C\c2ccc3c(c2)CCN3CCCCl)C1=O [Compound 23] | completely inhibited | completely inhibited | IC50 [1, 3]: 25 to 50 µM
12 | Cc1ccc(NC2=NC(=O)/C(=C/C=C/c3ccco3)S2)cc1 [Compound 24] | completely inhibited | completely inhibited | IC50 [1, 3]: 25 to 50 µM
13 | O=C(O)CCN1C(=O)/C(=C/c2ccc(-c3nc4ccccc4s3)o2)SC1=S [Compound 27] | completely inhibited | completely inhibited | 
14 | COc1ccc(-c2cc(-c3ccco3)nc(O)c2C#N)cc1OC [Compound 28] |  | almost completely inhibited | IC50 [1, 4]: 50 to 200 µM
15 | Cc1cc(/C=C2\SC(=S)N=C2O)c(C)n1-c1ccccc1 [Compound 29] | completely inhibited | completely inhibited | IC50 [1, 3]: 25 to 50 µM
16 | CC(=O)NC1=NC(=O)/C(=C/c2cc(C)n(-c3cccc(C(=O)O)c3)c2C)S1 [Compound 31] |  | completely inhibited | IC50 [1, 4]: 50 to 200 µM
17 | Cc1ccc(/C=C2\SC(N3CCN(C(c4ccccc4)c4ccccc4)CC3)=NC2=O)o1 [Compound 33] |  | completely inhibited | IC50 [1, 4]: 50 to 200 µM
18 | O=C1/C(=C\c2ccc(O)cc2)SC(=S)N1/N=C/c1ccc(O)cc1 [Compound 35] | completely inhibited | completely inhibited | IC50 [1, 3]: 25 to 50 µM
19 | CN(C)c1ccc(/C=C2/C(=O)N(CCc3ccc(F)cc3)C(=O)N=C2O)cc1 [Compound 38] |  | completely inhibited | IC50 [1, 4]: 50 to 200 µM
20 | CC(C)(CS(=O)(=O)[O-])NC(=O)CC[N+](C)(C)CCO [Compound 42] | completely inhibited | completely inhibited | 
21 | O=C(O)c1cc(N2N=C(C(F)(F)F)/C(=C/C=C/c3ccco3)C2=O)ccc1Cl [Compound 49] | almost completely inhibited | completely inhibited | IC50 [1, 3]: 25 to 50 µM
22 | O=C1NC(=S)S/C1=C/c1ccc(OC(=O)c2ccco2)cc1 [Compound 51] |  | almost completely inhibited | IC50 [1, 4]: 50 to 200 µM
23 | CCCn1c(/C=C/c2ccco2)nc2ccccc21 [Compound 53] | almost completely inhibited | completely inhibited | IC50 [1, 4]: 50 to 200 µM
24 | O=C(NCc1cccnc1)c1ccc(-c2cccc(Cl)c2Cl)o1 [Compound 56] |  | almost completely inhibited | IC50 [1, 4]: 50 to 200 µM
25 | CN1C(=O)/C(=C\c2ccc(-c3ccccc3)o2)SC1=S [Compound 57] |  | almost completely inhibited | 
26 | Cc1cc(C)c2c(c1)C(/N=N/c1cc([N+](=O)[O-])ccc1C)C(O)=N2 (stereo not shown) [Compound 114] | completely inhibited |  | 

Row | SMILES | inhibition of E. coli DNA gyrase activities ([2]; 50 µM of compounds) | inhibition of E. coli DNA gyrase activities ([2]; 200 µM of compounds) | further results
27 | Cc1cccc2c1N=C(O)C2/N=N/c1ccc(S(N)(=O)=O)cc1 (stereo not shown) [Compound 116] | completely inhibited |  | 
28 | Cc1cc(C)c2c(c1)C(=NNc1ccc(C)c(Cl)c1)C(O)=N2 [Compound 132] | completely inhibited |  | 
29 | N#C/C(=C\c1coc2ccc(O)cc2c1=O)C(=O)/N=c1\[nH]c2ccccc2s1 [Compound 165] | completely inhibited |  | 
30 | O=C(O)C(c1ccccc1)N1C(=O)/C(=C\c2ccc(-c3cccc(Cl)c3)o2)SC1=S (stereo not shown) [Compound 176] | completely inhibited |  | 
31 | O=C1/C(=C\c2ccc(O)c([N+](=O)[O-])c2)SC(=S)N1Cc1ccccc1 [Compound 192] | completely inhibited |  | 
32 | O=C1NC(=S)S/C1=C/c1cc(Cl)cc(Cl)c1O [Compound 207] | inhibited | completely inhibited | 
33 | Brc1ccc2c(c1)-c1ccccc1C1=NCCN12 [Compound 217] |  | completely inhibited | 
34 | CN(C)c1ccc(/C=c2\c3ccccc3n3c2cc(-c2ccccc2)[n+]3C)cc1 [Compound 236] | completely inhibited | completely inhibited | 
35 | COc1ccc2c(c1)/c(=C\c1ccc(N(C)C)cc1)c1cc(-c3ccccc3)[n+](C)n12.O=S(=O)([O-])C(F)(F)F [Compound 237] |  | completely inhibited | 
36 | CC1=NN(c2nc(N)nc(/C(C#N)=C\c3ccc([N+](=O)[O-])o3)n2)C(C)(C)C1 [Compound 238] |  | completely inhibited | 
37 | CCOC(=O)c1cc2c(=Cc3ccc(N(C)C)cc3)c3ccccc3n2[n+]1C.O=S(=O)([O-])C(F)(F)F [Compound 239] |  | completely inhibited | 
38 | COc1cccc2nc3c(C(=O)NCCN(C)C)cccc3cc12.Cl [Compound 240] |  | completely inhibited | 
39 | CN(C)CCNC(=O)c1cccc2nc3cccc(F)c3nc12.Cl [Compound 241] |  | completely inhibited | 
40 | Nc1ccc2cc3ccc(N)cc3nc2c1 [Compound 246] |  | completely inhibited | 
41 | Nc1c2ccccc2nc2ccccc12 [Compound 247] |  | completely inhibited | 
42 | CN1/C(=C/c2cc[n+](C)c3ccccc23)Sc2ccccc21.Cc1ccc(S(=O)(=O)[O-])cc1 [Compound 248] |  | completely inhibited | 
43 | CN(C)c1ccc2cc3ccc(N(C)C)cc3nc2c1 [Compound 249] |  | completely inhibited | 
44 | CCOc1ccc2nc3cc(N)ccc3c(N)c2c1 [Compound 257] |  | completely inhibited | 
45 | CSC1SC2C(=O)N(C)C(C(C)C)C(=O)OCC(NC(=O)c3cnc4ccccc4n3)C(=O)NC(C)C(=O)N(C)C1C(=O)N(C)C(C(C)C)C(=O)OCC(NC(=O)c1cnc3ccccc3n1)C(=O)NC(C)C(=O)N2C (stereo not shown) [Compound 258] |  | completely inhibited | 
46 | O=C(O[C@@H]1Cc2c(O)cc(O)cc2O[C@@H]1c1cc(O)c(O)c(O)c1)c1cc(O)c(O)c(O)c1 [EGCG, epigallocatechin gallate, reference compound] |  |  | inhibition of E. coli DNA gyrase activities [1]: strongly inhibit
47 | CN1C[C@H](CNC(=O)OCc2ccccc2)C[C@@H]2c3cccc4c3c(cn4C)C[C@H]21 [Metergoline, metergoline, reference compound] |  |  | inhibition of E. coli DNA gyrase activities [1]: inhibits gyrase activities at 100 and 200 µM
48 | O=C(OC[C@H]1O[C@@H](OC(=O)c2cc(O)c(O)c(OC(=O)c3cc(O)c(O)c(O)c3)c2)[C@H](OC(=O)c2cc(O)c(O)c(OC(=O)c3cc(O)c(O)c(O)c3)c2)[C@@H](OC(=O)c2cc(O)c(O)c(OC(=O)c3cc(O)c(O)c(O)c3)c2)[C@@H]1OC(=O)c1cc(O)c(O)c(OC(=O)c2cc(O)c(O)c(O)c2)c1)c1cc(O)c(O)c(OC(=O)c2cc(O)c(O)c(O)c2)c1 [Tannic acid, tannic acid] |  |  | IC50 ([2]; gel-based, read-out: IC50 against E. coli DNA gyrase): 1 µM
49 | O=c1oc2c(O)c(O)cc3c(=O)oc4c(O)c(O)cc1c4c23 [ellagic acid, reference compound] |  |  | inhibition of E. coli DNA gyrase activities [1]: strongly inhibit
50 | Cc1c2cc(O)c(=O)cc-2oc2cc(O)c(O)cc12 [methyl fluorone black] |  |  | IC50 ([1]; read-out: IC50 against E. coli DNA gyrase): < 10 µM
51 | O=c1ccc2cc3ccoc3cc2o1 [psoralen, reference compound] |  |  | inhibition of E. coli DNA gyrase activities [1]: is not a gyrase inhibitor
52 | O=C(O)c1cc(O)c2c(c1)C(=O)c1cccc(O)c1C2=O [rhein] |  |  | inhibition of E. coli DNA gyrase activities [1]: potently inhibited
